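Method: 48-hour compound exposure of cells in 96-well plates, five concentrations, linear interpolation of endpoints. GI50 = concentration required for 50% inhibition of growth. TGI: concentration producing complete growth inhibition.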
Assays:
Assay in all cases: NCI-60 cell line screen, 48 h
[1] = tested on: A498 renal
[2] = tested on: IGROV1 ovarian
[3] = tested on: HCC-2998 colon
[4] = tested on: NCI-H23 lung
[5] = tested on: PC-3 prostate
[6] = tested on: SW-620 colon
[7] = tested on: SF-268 CNS
[8] = tested on: HL-60(TB) leukemia
[9] = tested on: COLO 205 colon
[10] = tested on: SK-MEL-5 melanoma
[11] = tested on: UACC-62 melanoma

| SMILES | TGI [1] [µM] | TGI [2] [µM] | TGI [3] [µM] | TGI [4] [µM] | TGI [5] [µM] | TGI [6] [µM] | TGI [7] [µM] | TGI [8] [µM] | TGI [9] [µM] | TGI [10] [µM] | TGI [11] [µM] | GI50 [5] [µM] |
| --- | --- | --- | --- | --- | --- | --- | --- | --- | --- | --- | --- | --- |
| CCOC(=O)c1csc(NC(=O)CN2CCOCC2)n1 | > 100 | > 100 | > 100 | > 100 | > 100 | > 100 | > 100 | > 100 | > 100 | > 100 | > 100 |  |
| CC1(C)OC(=O)N(c2ccccc2)C12C=Cc1cc([N+](=O)[O-])cc([N+](=O)[O-])c1O2 (centres undefined) | > 100 | > 100 | > 100 | > 100 | > 100 | > 100 | > 100 | > 100 | > 100 | > 100 | > 100 |  |
| O=c1[nH]c(Nc2cccc(CC(F)(F)F)c2)nc2nc[nH]c12 | > 100 | > 100 | > 100 | > 100 | > 100 | > 100 | > 100 | > 100 | > 100 | > 100 | > 100 |  |
| CC(=O)NC(Cc1ccc(O)cc1)C(=O)O (centres undefined) | > 100 | > 100 | > 100 | > 100 | > 100 | > 100 | > 100 | > 100 | > 100 | > 100 | > 100 |  |
| CC(C)(C)OC(=O)N[C@H]1CCN(C2CCCCC2)C1=O | > 100 | > 100 | > 100 | > 100 | > 100 | > 100 | > 100 | > 100 | > 100 | > 100 | > 100 |  |
| O=[N+]([O-])c1ccc2c(c1)/C(=N/N=C1c3ccccc3Cc3ccccc31)c1cc([N+](=O)[O-])cc([N+](=O)[O-])c1-2 | 18.2 | 3.04 | 12.8 | 3.85 | 10.2 | 9.38 | 5.81 | > 22.8 | 9.9 | 15 | 6.46 |  |
| O=C1/C(=C/c2ccccc2)N=C2Sc3c(nc[nH]c3=O)N12 | > 100 | > 100 | > 100 | > 100 | > 100 | > 100 | > 100 | > 100 | > 100 | > 100 |  |  |
| COc1cc(C2c3cc4c(cc3OC(N3CCOCC3)C2C)OCO4)ccc1O (centres undefined) | 51.4 | > 100 | 52.5 | > 95.7 | > 100 | > 100 | > 100 | 23.6 | > 100 | > 80.4 | > 100 |  |
| CCCCCCCCCCCCCCNC(=O)CCC(NC(=O)c1ccc(N(C)Cc2cnc3nc(N)nc(N)c3n2)cc1)C(=O)NCCCCCCCCCCCCCC (centres undefined) | 34.5 | 27.3 | 19.8 | 20.8 | 22.5 | > 43 | 22.4 | 0.758 | > 62.9 | > 81.7 | 22.2 |  |
| CN1CCN(C2=NCCO2)CC1 | > 100 | > 100 | > 100 | > 100 | > 100 | > 100 | > 100 | > 100 | > 100 | > 100 | > 100 |  |
| O=C1C=CC(=O)c2c1ccc1c3ccccc3n(CCCCCCCCCCCCn3c4ccccc4c4ccc5c(c43)C(=O)C=CC5=O)c21 | > 100 | > 100 | > 46.4 | > 100 | > 100 | > 100 | > 100 | > 91.3 | > 100 | > 100 | > 100 |  |
| CC(C)(C)OC(=O)NCCCCC1NC(=O)[C@@H]2Cc3c([nH]c4ccccc34)C(C3CCCCC3)N2C1=O (some centres undefined) | > 100 | > 100 | 67.3 | > 100 | > 100 | > 100 | > 100 | > 100 | 55.1 | > 100 | > 100 |  |
| COc1ccc(N/N=C2\CCOc3ccc(C)cc3C2=O)cc1 | > 100 | > 100 | 97.5 |  | > 100 | > 100 | > 100 | > 100 | > 100 | 50.6 | 80.4 |  |
| COC(=O)C([C@H](NC1(c2ccccc2)c2ccccc2-c2ccccc21)C(=O)OC)N(NC(=O)OCc1ccccc1)C(=O)OCc1ccccc1 (mixture of isomers) | > 100 | > 100 | > 100 | > 100 | > 100 | > 100 | > 100 | > 100 | > 100 | > 100 | > 100 |  |
| CC(=O)OC1CC(OC2C(O)CC(OC3C(O)CC(OC4CCC5(C)C(CCC6C5CC(O)C5(C)C(C7=CC(=O)OC7)CCC65O)C4)OC3C)OC2C)OC(C)C1OC1OC(CO)C(O)C(O)C1O (centres undefined) | 0.413 | 1.11 | 0.441 | 0.0744 | 0.206 | 0.252 | 0.185 | 0.22 | 0.394 | 0.161 | 0.404 | 0.0522 |
| CC[C@@H]1CC[C@@H]2[C@H](CC[C@]3(C)[C@@H](OC(C)=O)CC[C@@H]23)[C@H]1COC(C)=O | 94.4 | > 100 | 33.4 | 79.1 | > 100 | > 100 | 92.5 | 39.2 | 36.8 | 32.7 | 88 |  |

| SMILES | TGI [1] [µM] | TGI [2] [µM] | TGI [3] [µM] | TGI [4] [µM] | TGI [5] [µM] | TGI [6] [µM] | TGI [7] [µM] | TGI [8] [µM] | TGI [9] [µM] | TGI [10] [µM] | TGI [11] [µM] | GI50 [5] [µM] |
| --- | --- | --- | --- | --- | --- | --- | --- | --- | --- | --- | --- | --- |
| Nn1c(-c2ccccc2)nn(C(=O)c2ccccc2)c1=O | > 100 | > 100 | > 100 | > 100 | > 100 | > 100 | > 100 | > 100 | > 100 | > 100 |  |  |
| COC(=O)c1c(C)cccc1C1CN=NC12Cc1ccc(C)cc1C2=O (centres undefined) | > 100 | > 100 | > 100 | > 100 | > 100 | > 100 | > 100 | 47.1 |  | 44.1 | 78.5 |  |
| O=C1CCCSC(=O)N1Cc1ccccc1 | > 100 | > 100 | > 100 | > 100 | > 100 | > 100 | > 100 | > 100 | > 100 | > 100 | > 100 |  |
| Cc1nc2n(c1/C=C1/C(=O)Nc3cccc(Cl)c31)CCS2 | > 100 | > 100 | > 100 | > 100 | > 100 | > 100 | 52.1 | > 100 | > 100 | > 100 | > 100 |  |
| N#CCCC1C(C#N)C2(Cl)CC1(Cl)C(Cl)=C2Cl (centres undefined) | > 10 | > 10 | > 10 | > 10 | > 10 | > 10 | > 10 | > 10 | > 10 | > 10 | > 10 |  |
| CCOC(=O)C(SCCO)C(C(=O)OCC)n1cnc2c(=O)[nH]c(NC(C)=O)nc21 (centres undefined) | > 100 | > 100 | > 100 | > 100 | > 100 | > 100 | > 100 | > 100 | > 100 | > 100 | > 100 |  |
| CC(C)=CCc1c2c(c3occ(-c4ccc(O)cc4)c(=O)c3c1O)CC(C(C)(C)O)O2 (centres undefined) | 29.6 | 12 | 23.2 | 36 | 26.7 | 64.4 | 48.5 | 34.4 | 30 | 30.1 | 30 |  |
| c1ccc(N=c2sc3ccccc3nc2Nc2ccccc2)cc1 | > 100 | > 100 | > 100 | > 100 | > 100 | > 100 | > 100 | > 100 | > 100 | > 100 | > 100 |  |
| N#Cc1c(N2CCCC2)ncn(-c2ccccc2)c1=O | > 100 | > 100 | > 100 | > 100 | > 100 | > 100 | > 100 | > 100 | > 100 | > 100 | > 100 |  |
| Cc1ccccc1C(=O)N1CCc2c([nH]c3ccccc23)C1 | 51.4 | > 100 | 33.9 | 50.9 | 33.9 | > 100 | > 100 | 39.2 | 31.9 | 29.6 | 31.6 |  |
| CC(=O)O[C@@H]1[C@H](C(C)C)[C@@H](OC(C)=O)C/C(C)=C/CC[C@]2(C)O[C@@H]12 | > 100 | > 100 | > 100 | > 100 | > 100 | > 100 | > 100 | > 100 | > 100 | > 100 | > 100 |  |
| Cc1ccc([N+](=O)[O-])cc1NC1=NCCO1 | > 100 | > 100 | > 100 | > 100 | > 100 | > 100 | > 100 | > 100 | > 100 | > 100 | > 100 |  |
| CC(C)(C)N1CSC(=S)N(Cc2ccco2)C1 | 26.7 | 12.6 | 13.3 | 11.1 | 13.7 | 11.9 | 15.1 | 4.03 | 14.7 | 14 | 20 |  |
| O=C1CC(NC(=O)C(F)(F)F)c2c(Br)sc(N3CCNCC3)c21 (centres undefined) | > 100 | > 100 | > 100 | > 100 | > 100 | > 100 | > 100 | > 100 | > 100 | > 100 | > 100 |  |
| O=[N+]([O-])c1cccc(-c2csc(NNC3=NC/C(=C/c4ccc5c(c4)OCO5)S3)n2)c1 | 37 | 47.4 | > 100 | 48.9 | 55.8 | > 100 | 69 | > 100 | 98.7 | 38.6 | 56.5 |  |
| C#CCNC(CS)C(=O)O (centres undefined) | > 100 | > 100 | > 100 | > 100 | > 100 | > 100 | > 100 | > 100 | > 100 | > 100 | > 100 |  |
